Measured values taken from patent US9187472B2 (AbbVie Inc., priority 2012, dated 2015).
pIC50: −log10 of the molar value.

What was measured:
[1] = molecular target: NAMPT (human, recombinant, C-terminally His-tagged) (Homo sapiens, UniProt P43490); assay: Time-Resolved Fluorescence Resonance Energy Transfer (TR-FRET) Binding Assay of NAMPT; conditions: without substrates; 6.8 nM NAMPT, 200 nM probe, 3 hours equilibration
Summary of the method: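 Probe displacement by compound was measured with 6.8 nM NAMPT, 200 nM Oregon Green 488-conjugated nicotinamide-competitive inhibitor probe and 1 nM Tb-anti-His antibody in 50 mM HEPES pH 7.5, 100 mM NaCl, 10 mM MgCl2, 1 mM DTT, 1% glycerol, 2% DMSO (final). After 3 h at room temperature, TR-FRET was read; IC50 from four-parameter logistic fit.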

PC3 cells = assay: NAMPT Cell Proliferation Assay; type: cell-based; conditions: Homo sapiens, PC-3, 120 h, 5 days incubation, cell viability by Cell Titer Glo
Summary of the method: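 IC50 values derive from sigmoidal dose-response fits of percent inhibition of PC3 viability, measured by luminescence after 5 days of compound treatment. Cells (500/well, RPMI containing 10% heat-inactivated FBS) are allowed to attach overnight, and compounds are tested at 10-fold dilutions between 10 μM and 1×10^−5 μM.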

NAMPT = NAMPT (Homo sapiens, UniProt P43490); assay: TR-FRET Binding Assay of NAMPT with PRPP; conditions: with 200 μM PRPP and 2.5 mM ATP; 2 nM NAMPT, 2 nM probe, 16 hours equilibration
Summary of the method: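 Run in the presence of substrates (200 μM PRPP, 2.5 mM ATP) with final 2 nM NAMPT, 2 nM probe, 1 nM Tb-anti-His antibody and 2% DMSO. Mixtures equilibrated 16 h before TR-FRET measurement so test compounds could be enzymatically modified.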

Sequence of NAMPT (P43490 whole entry): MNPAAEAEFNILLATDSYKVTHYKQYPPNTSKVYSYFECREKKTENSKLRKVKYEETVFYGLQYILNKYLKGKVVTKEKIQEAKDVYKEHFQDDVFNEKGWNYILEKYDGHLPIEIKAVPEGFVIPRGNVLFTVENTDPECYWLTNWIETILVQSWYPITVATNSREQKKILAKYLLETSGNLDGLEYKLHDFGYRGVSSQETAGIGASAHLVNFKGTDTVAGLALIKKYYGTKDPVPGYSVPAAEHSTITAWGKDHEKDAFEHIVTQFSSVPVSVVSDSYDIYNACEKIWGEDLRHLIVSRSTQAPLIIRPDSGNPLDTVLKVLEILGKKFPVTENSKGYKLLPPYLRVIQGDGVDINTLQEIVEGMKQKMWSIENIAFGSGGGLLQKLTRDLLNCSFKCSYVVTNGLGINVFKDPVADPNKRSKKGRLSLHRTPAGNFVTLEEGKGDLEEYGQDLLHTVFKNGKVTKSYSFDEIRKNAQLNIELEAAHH
Sequence of NAMPT (human, recombinant, C-terminally His-tagged) (P43490 whole entry): as above

| Compound | pIC50 [1] | pIC50 (PC3 cells) | pIC50 (NAMPT) |
| --- | --- | --- | --- |
| CC(C)Cn1cc(-c2ccc(C(=O)NCc3ccn4ccnc4c3)s2)cn1 [Example 174, N-(imidazo[1,2-a]pyridin-7-ylmethyl)-5-[1-(2-methylpropyl)-1H-pyrazol-4-yl]thiophene-2-carboxamide] | 7.55 | 8.95 | 9.77 |
| CC(C)C(=O)n1cc(-c2ccc(C(=O)NCc3ccc4nccn4c3)s2)cn1 [Example 175, N-(imidazo[1,2-a]pyridin-6-ylmethyl)-5-[1-(2-methylpropanoyl)-1H-pyrazol-4-yl]thiophene-2-carboxamide] | 6.16 | 6.50 | 9.05 |
| CC(C)(O)Cn1cc(-c2ccc(C(=O)NCc3ccc4nccn4c3)s2)cn1 [Example 176, 5-[1-(2-hydroxy-2-methylpropyl)-1H-pyrazol-4-yl]-N-(imidazo[1,2-a]pyridin-6-ylmethyl)thiophene-2-carboxamide] | 7.22 | 8.74 | 9.38 |
| CC1(Cn2cc(-c3ccc(C(=O)NCc4ccc5nccn5c4)s3)cn2)COC1 [Example 177, N-(imidazo[1,2-a]pyridin-6-ylmethyl)-5-{1-[(3-methyloxetan-3-yl)methyl]-1H-pyrazol-4-yl}thiophene-2-carboxamide] | 7.70 | 8.77 | 9.77 |
| O=C(NCc1ccc2nccn2c1)c1ccc(-c2cnn(CC3CCC3)c2)s1 [Example 178, 5-[1-(cyclobutylmethyl)-1H-pyrazol-4-yl]-N-(imidazo[1,2-a]pyridin-6-ylmethyl)thiophene-2-carboxamide] | 7.84 | 8.73 | 9.77 |
| O=C(NCc1ccc2nccn2c1)c1ccc(-c2cnn(CC3CCCCC3)c2)s1 [Example 179, 5-[1-(cyclohexylmethyl)-1H-pyrazol-4-yl]-N-(imidazo[1,2-a]pyridin-6-ylmethyl)thiophene-2-carboxamide] | 7.24 | 8.66 | 9.35 |
| CC[C@@H](O)Cn1cc(-c2ccc(C(=O)NCc3ccc4nccn4c3)s2)cn1 [Example 180, 5-{1-[(2R)-2-hydroxybutyl]-1H-pyrazol-4-yl}-N-(imidazo[1,2-a]pyridin-6-ylmethyl)thiophene-2-carboxamide] | 6.23 | 8.04 | 9.58 |
| CC(C)[C@@H]1COC(=O)N1c1ncc(C(=O)NCc2ccn3ccnc3c2)s1 [Example 181, N-(imidazo[1,2-a]pyridin-7-ylmethyl)-2-[(4R)-2-oxo-4-(propan-2-yl)-1,3-oxazolidin-3-yl]-1,3-thiazole-5-carboxamide] | 6.46 | 8.11 | 9.55 |
| CC(C)(O)Cn1cc(-c2ccc(C(=O)NCc3ccn4ccnc4c3)s2)cn1 [Example 182, 5-[1-(2-hydroxy-2-methylpropyl)-1H-pyrazol-4-yl]-N-(imidazo[1,2-a]pyridin-7-ylmethyl)thiophene-2-carboxamide] | 6.86 | 8.86 | 9.40 |
| Cn1cc(CC(=O)N(CC2CCCO2)c2ncc(C(=O)NCc3ccc4nccn4c3)s2)cn1 (stereo not drawn) [Example 183, N-(imidazo[1,2-a]pyridin-6-ylmethyl)-2-{[(1-methyl-1H-pyrazol-4-yl)acetyl](tetrahydrofuran-2-ylmethyl)amino}-1,3-thiazole-5-carboxamide] | 5.98 | 7.20 | 8.74 |
| Cc1nn(C)cc1CC(=O)N(CC1CCCO1)c1ncc(C(=O)NCc2ccc3nccn3c2)s1 (stereo not drawn) [Example 184, 2-{[(1,3-dimethyl-1H-pyrazol-4-yl)acetyl](tetrahydrofuran-2-ylmethyl)amino}-N-(imidazo[1,2-a]pyridin-6-ylmethyl)-1,3-thiazole-5-carboxamide] | 5.36 | 7.19 | 8.60 |
| CC(C)[C@H]1COC(=O)N1c1ncc(C(=O)NCc2ccn3ccnc3c2)s1 [Example 185, N-(imidazo[1,2-a]pyridin-7-ylmethyl)-2-[(4S)-2-oxo-4-(propan-2-yl)-1,3-oxazolidin-3-yl]-1,3-thiazole-5-carboxamide] | < 5.00 | 5.30 | 8.73 |
| O=C(NCc1ccc2nccn2c1)c1ccc(-c2cnn(CC3CCCCO3)c2)s1 (stereo not drawn) [Example 186, N-(imidazo[1,2-a]pyridin-6-ylmethyl)-5-[1-(tetrahydro-2H-pyran-2-ylmethyl)-1H-pyrazol-4-yl]thiophene-2-carboxamide] | 7.18 | 8.63 | 9.46 |
| O=C(NCc1ccn2ccnc2c1)c1cnc(N2C(=O)OC[C@H]2COCc2ccccc2)s1 [Example 187, 2-{(4R)-4-[(benzyloxy)methyl]-2-oxo-1,3-oxazolidin-3-yl}-N-(imidazo[1,2-a]pyridin-7-ylmethyl)-1,3-thiazole-5-carboxamide] | 6.26 | 7.47 | 9.76 |
| O=C(NCc1ccn2ccnc2c1)c1cnc(N2C(=O)OC[C@@H]2COCc2ccccc2)s1 [Example 188, 2-{(4S)-4-[(benzyloxy)methyl]-2-oxo-1,3-oxazolidin-3-yl}-N-(imidazo[1,2-a]pyridin-7-ylmethyl)-1,3-thiazole-5-carboxamide] | < 5.00 | 5.20 | 8.29 |
| Cn1cccc1CCC(=O)N(CC1CCCO1)c1ncc(C(=O)NCc2ccc3nccn3c2)s1 (stereo not drawn) [Example 189, N-(imidazo[1,2-a]pyridin-6-ylmethyl)-2-{[3-(1-methyl-1H-pyrrol-2-yl)propanoyl](tetrahydrofuran-2-ylmethyl)amino}-1,3-thiazole-5-carboxamide] | 6.72 | 7.53 | 7.95 |
| Cc1cc(CC(=O)N(CC2CCCO2)c2ncc(C(=O)NCc3ccc4nccn4c3)s2)nn1C (stereo not drawn) [Example 190, 2-{[(1,5-dimethyl-1H-pyrazol-3-yl)acetyl](tetrahydrofuran-2-ylmethyl)amino}-N-(imidazo[1,2-a]pyridin-6-ylmethyl)-1,3-thiazole-5-carboxamide] | 6.40 | 7.83 | 8.34 |
| O=C(NCc1ccc2nccn2c1)c1cnc(N(CC2CCCO2)C(=O)Cc2cscn2)s1 (stereo not drawn) [Example 191, N-(imidazo[1,2-a]pyridin-6-ylmethyl)-2-[(tetrahydrofuran-2-ylmethyl)(1,3-thiazol-4-ylacetyl)amino]-1,3-thiazole-5-carboxamide] | 6.09 | 7.84 | 8.22 |
| O=C(NCc1ccn2ccnc2c1)c1cnc(N(C[C@H]2CCCO2)C(=O)Cc2ccon2)s1 [Example 192, N-(imidazo[1,2-a]pyridin-7-ylmethyl)-2-{(1,2-oxazol-3-ylacetyl)[(2R)-tetrahydrofuran-2-ylmethyl]amino}-1,3-thiazole-5-carboxamide] | 6.62 | 8.73 | 9.62 |
| Cc1cc(CC(=O)N(C[C@H]2CCCO2)c2ncc(C(=O)NCc3ccn4ccnc4c3)s2)no1 [Example 193, N-(imidazo[1,2-a]pyridin-7-ylmethyl)-2-{[(5-methyl-1,2-oxazol-3-yl)acetyl][(2R)-tetrahydrofuran-2-ylmethyl]amino}-1,3-thiazole-5-carboxamide] | 6.29 | 7.70 | 9.58 |
